Laboratory results as given in patent US20230287003A1, “BCL6 INHIBITORS” (Cancer Research Technology Limited, priority 2018, published 2023).

How the values were obtained:
[1] = biological target: BCL6-NCOR2(SMRT) corepressor protein-protein interaction (Homo sapiens (Human), UniProt P41182); experiment: NanoBRET cell assay; format: cell-based; conditions: read-out: NanoBRET cell avg pIC50 (converted)
From the text: At 20 hr post-transfection, cells were collected, washed with PBS, and exchanged into media containing phenol red-free OptiMEM+4% FBS (Life Technology).

[2] = biological target: human BCL6 BTB domain (Trx-6×His-BCL6) / BCOR-AF633 peptide (Homo sapiens (Human), UniProt P41182); experiment: HTRF assay; format: binding; conditions: for HTRF avg pIC50 (1 nM): 1 nM Trx-6×His-BCL6, 300 nM BCOR-AF633 peptide, 2 hours incubation; for IC50: read-out: IC50 in the HTRF assay

IC50 [1] [nM] | HTRF avg pIC50 (1 nM) [2] | IC50 [2] [nM] | Compound
3310 | 6.70 |  | COC[C@@H]1CCCN1C(=O)c1cc(Nc2ccc3c(c2)c2c(c(=O)n3C)OCC[C@H](C)N2)c(Cl)cn1 [Example 4b, (S)-10-((5-chloro-2-((S)-2-(methoxymethyl)pyrrolidine-1-carbonyl)pyridin-4-yl)amino)-2,7-dimethyl-1,2,3,4-tetrahydro-[1,4]oxazepino[2,3-c]quinolin-6(7H)-one]
112 | 7.22 |  | Cn1c(=O)c2c(c3cc(Nc4nc(N5CC(C)(C)OC(C)(C)C5)ncc4Cl)ccc31)N[C@@H](C1CC1)CCO2 [Example 5k, (R)-10-((5-chloro-2-(2,2,6,6-tetramethylmorpholino)pyrimidin-4-yl)amino)-2-cyclopropyl-7-methyl-1,2,3,4-tetrahydro-[1,4]oxazepino[2,3-c]quinolin-6(7H)-one]
18.6 | 8.82 |  | CN1CCN(c2ncc(Cl)c(Nc3ccc4c(c3)c3c(c(=O)n4C)OCC(F)(F)[C@H](C4CC4)N3)n2)CC1=O [Example 12a, (S)-10-((5-chloro-2-(4-methyl-3-oxopiperazin-1-yl)pyrimidin-4-yl)amino)-2-cyclopropyl-3,3-difluoro-7-methyl-1,2,3,4-tetrahydro-[1,4]oxazepino[2,3-c]quinolin-6(7H)-one]
3090 | 8.15 |  | Cn1c(=O)c2c(c3cc(Nc4ccnc(Cl)c4C#N)ccc31)N[C@@H](C1CC1)CCS2(=O)=O [Example 1u, (R)-2-chloro-4-((2-cyclopropyl-7-methyl-5,5-dioxido-6-oxo-1,2,3,4,6,7-hexahydro-[1,4]thiazepino[2,3-c]quinolin-10-yl)amino)nicotinonitrile]
2000 | 6.57 |  | Cn1c(=O)c2c(c3cc(Nc4ccnc(Cl)c4C#N)ccc31)N[C@@H](C1CC1)COC2 [Example 9b, (S)-2-chloro-4-((2-cyclopropyl-7-methyl-6-oxo-1,2,3,5,6,7-hexahydro-[1,4]oxazepino[6,5-c]quinolin-10-yl)amino)nicotinonitrile]
19100 | 6.72 |  | C[C@H]1COC(=O)c2c(c3cc(Nc4cc(OC5CCOCC5)ncc4Cl)ccc3n(C)c2=O)N1 [Example 7a]
 | 5.91 |  | CC1COc2c(c3cc(Nc4ccnc(Cl)c4C#N)ccc3n(C)c2=O)N1 (stereo not drawn) [Example 1k, 2-chloro-4-((2,6-dimethyl-5-oxo-2,3,5,6-tetrahydro-1H-[1,4]oxazino[2,3-c]quinolin-9-yl)amino)nicotinonitrile]
 |  | > 2500 | CC(C)C1CCOc2c(c3cc(Nc4ccnc(Cl)c4C#N)ccc3n(C)c2=O)N1 (stereo not drawn) [2-chloro-4-((2-isopropyl-7-methyl-6-oxo-1,2,3,4,6,7-hexahydro-[1,4]oxazepino[2,3-c]quinolin-10-yl)amino)nicotinonitrile]
 | 6.93 |  | C[C@@H]1CN(c2ncc(Cl)c(Nc3ccc4c(c3)c3c(c(=O)n4C)OCC[C@H](C4CC4)N3)n2)C[C@H](C)[C@H]1F [Example 12e, (R)-10-((5-chloro-2-((3S,4R,5R)-4-fluoro-3,5-dimethylpiperidin-1-yl)pyrimidin-4-yl)amino)-2-cyclopropyl-7-methyl-1,2,3,4-tetrahydro-[1,4]oxazepino[2,3-c]quinolin-6(7H)-one]
 | 7.51 |  | (R)-10-((5-chloro-2-((R)-4,4-difluoro-3- (hydroxymethyl)piperidin-1-yl)pyrimidin-4-yl)amino)-2- cyclopropyl-7-methyl-1,2,3,4-tetrahydro- [1,4]oxazepino[2,3-c]quinolin-6(7H)-one or (R)-10-((5-chloro- 2-((S)-4,4-difluoro-3-(hydroxymethyl)piperidin-1-yl)pyrimidin- 4-yl)amino)-2-cyclopropyl-7-methyl-1,2,3,4-tetrahydro- [1,4]oxazepino[2,3-c]quinolin-6(7H)-one [Example 15b]
 | 7.94 |  | Cn1c(=O)c2c(c3cc(Nc4nc(N5CCC(F)(F)CC5)ncc4Cl)ccc31)N[C@@H](C1CC1)C(F)(F)CO2 [Example 12n, (S)-10-((5-chloro-2-(4,4-difluoropiperidin-1-yl)pyrimidin-4-yl)amino)-2-cyclopropyl-3,3-difluoro-7-methyl-1,2,3,4-tetrahydro-[1,4]oxazepino[2,3-c]quinolin-6(7H)-one]
 | 8.45 |  | CN1CCN(c2ncc(F)c(Nc3ccc4c(c3)c3c(c(=O)n4C)OCC(F)(F)[C@H](C4CC4)N3)n2)CC1=O [Example 13i, (S)-2-cyclopropyl-3,3-difluoro-10-((5-fluoro-2-(4-methyl-3-oxopiperazin-1-yl)pyrimidin-4-yl)amino)-7-methyl-1,2,3,4-tetrahydro-[1,4]oxazepino[2,3-c]quinolin-6(7H)-one]
 | 8.68 |  | Cn1c(=O)c2c(c3cc(Nc4nc(N5CCc6ncnc(O)c6C5)ncc4Cl)ccc31)N[C@@H](C1CC1)C(F)(F)CO2 [Example 13a, (S)-10-((5-chloro-2-(4-hydroxy-7,8-dihydropyrido[4,3-d]pyrimidin-6(5H)-yl)pyrimidin-4-yl)amino)-2-cyclopropyl-3,3-difluoro-7-methyl-1,2,3,4-tetrahydro-[1,4]oxazepino[2,3-c]quinolin-6(7H)-one]
 | 6.69 |  | C[C@H]1COC(=O)c2c(c3cc(Nc4nc(N5CCC6(CCCN(C)C6=O)CC5)ncc4Cl)ccc3n(C)c2=O)N1 [Example 8e, (S)-10-((5-chloro-2-(2-methyl-1-oxo-2,9-diazaspiro[5.5]undecan-9-yl)pyrimidin-4-yl)amino)-2,7-dimethyl-2,3-dihydro-[1,4]oxazepino[6,5-c]quinoline-5,6(1H,7H)-dione]
 | 6.22 |  | CCC1COc2c(c3cc(Nc4ccnc(Cl)c4C#N)ccc3n(C)c2=O)N1 (stereo not drawn) [Example 1l, 2-chloro-4-((2-ethyl-6-methyl-5-oxo-2,3,5,6-tetrahydro-1H-[1,4]oxazino[2,3-c]quinolin-9-yl)amino)nicotinonitrile]
 | 6.00 |  | CC1CSc2c(c3cc(Nc4ccnc(Cl)c4C#N)ccc3n(C)c2=O)N1 (stereo not drawn) [Example 1t, 2-chloro-4-((2,6-dimethyl-5-oxo-2,3,5,6-tetrahydro-1H-[1,4]thiazino[2,3-c]quinolin-9-yl)amino)nicotinonitrile]
 | 6.36 |  | C[C@@H]1C[C@H](C)CN(c2ncc(Cl)c(Nc3ccc4c(c3)c3c(c(=O)n4C)C(=O)OC[C@H](C4CC4)N3)n2)C1 [Example 8l, (S)-10-((5-chloro-2-((3R,5S)-3,5-dimethylpiperidin-1-yl)pyrimidin-4-yl)amino)-2-cyclopropyl-7-methyl-2,3-dihydro-[1,4]oxazepino[6,5-c]quinoline-5,6(1H,7H)-dione]
 |  | > 2500 | CC1CC(C)(C)Oc2c(c3cc(Nc4ccnc(Cl)c4C#N)ccc3n(C)c2=O)N1 (stereo not drawn) [2-chloro-4-((2,4,4,7-tetramethyl-6-oxo-1,2,3,4,6,7-hexahydro-[1,4]oxazepino[2,3-c]quinolin-10-yl)amino)nicotinonitrile]
 | 7.15 |  | CNCCn1c(=O)c2c(c3cc(Nc4nc(N5C[C@@H](C)C(F)(F)[C@@H](C)C5)ncc4Cl)ccc31)N[C@@H](C1CC1)CCO2 [Example 17a, (R)-10-((5-chloro-2-((3S,5R)-4,4-difluoro-3,5-dimethylpiperidin-1-yl)pyrimidin-4-yl)amino)-2-cyclopropyl-7-(2-(methylamino)ethyl)-1,2,3,4-tetrahydro-[1,4]oxazepino[2,3-c]quinolin-6(7H)-one]

Compound | IC50 [1] [nM] | HTRF avg pIC50 (1 nM) [2] | IC50 [2] [nM]
Cn1c(=O)c2c(c3cc(Nc4nc(N5C6COCC5CC(O)C6)ncc4Cl)ccc31)NC(C1CC1)C(F)(F)CO2 [Example 11a, 10-((5-chloro-2-((1R,5S,7s)-7-hydroxy-3-oxa-9-azabicyclo[3.3.1]nonan-9-yl)pyrimidin-4-yl)amino)-2-cyclopropyl-3,3-difluoro-7-methyl-1,2,3,4-tetrahydro-[1,4]oxazepino[2,3-c]quinolin-6(7H)-one] | 5.01 | 8.81 | 
CN1CC2CCC(C1)N2c1ncc(Cl)c(Nc2ccc3c(c2)c2c(c(=O)n3C)OCC[C@H](C3CC3)N2)n1 [Example 12i, (R)-10-((5-chloro-2-(3-methyl-3,8-diazabicyclo[3.2.1]octan-8-yl)pyrimidin-4-yl)amino)-2-cyclopropyl-7-methyl-1,2,3,4-tetrahydro-[1,4]oxazepino[2,3-c]quinolin-6(7H)-one] | 148 | 7.81 | 
Cn1c(=O)c2c(c3cc(Nc4nc(N5C6COCC5CC(C)(O)C6)ncc4Cl)ccc31)N[C@@H](C1CC1)CCO2 (stereo partly drawn) [Example 12h, (R)-10-((5-chloro-2-((1R,5S,7S)-7-hydroxy-7-methyl-3-oxa-9-azabicyclo[3.3.1]nonan-9-yl)pyrimidin-4-yl)amino)-2-cyclopropyl-7-methyl-1,2,3,4-tetrahydro-[1,4]oxazepino[2,3-c]quinolin-6(7H)-one] | 145 | 7.93 | 
C[C@H]1COCc2c(c3cc(Nc4ccnc(Cl)c4C#N)ccc3n(C)c2=O)N1 [Example 9a, (S)-2-chloro-4-((2,7-dimethyl-6-oxo-1,2,3,5,6,7-hexahydro-[1,4]oxazepino[6,5-c]quinolin-10-yl)amino)nicotinonitrile] |  | 5.66 | 
(S)-10-((5-chloro-2-((1S,5R)-3-methyl-2-oxo-3,8- diazabicyclo[3.2.1]octan-8-yl)pyrimidin-4-yl)amino)-2-cyclopropyl- 3,3-difluoro-7-methyl-1,2,3,4-tetrahydro-[1,4]oxazepino[2,3-c]quinolin- 6(7H)-one and (S)-10-((5-chloro-2-((1R,5S)-3-methyl-2-oxo-3,8- diazabicyclo[3.2.1]octan-8-yl)pyrimidin-4-yl)amino)-2-cyclopropyl- 3,3-difluoro-7-methyl-1,2,3,4-tetrahydro- [1,4]oxazepino[2,3-c]quinolin-6(7H)-one [Example 13b] |  | 8.59 | 
